Like-named read-outs stand apart in the source and are kept apart here.
Assays:
[1] = tested on: maximal electroshock seizure (MES); details: cited from earlier work
[2] = tested on: maximal electroshock seizure (MES); details: rats; reference or literature compound; cited from earlier work
[3] = in vivo; details: male, Sprague-Dawley, rat, po
Experimental: (§1) The tested compounds were suspended in 0.5% methylcellulose and administered (a) intraperitioneally (ip) to adult male CF no. 1 albino mice (18-25 g) in volume of 0.01 mL/g body weight and (b) orally to adult male Sprague-Dawley albino rats (100-150 g) in volume of 0.04 mL per 10 g of body weight.
(§2) The TD50 was determined by varying the dose of the tested compounds until four points were established between the dose level that induced no signs of minimal motor impairment in any of the animals and the dose at which all the animals were considered impaired. […] The PIs were calculated by dividing the TD50 by the ED50.

[4] = tested on: maximal electroshock seizure (MES); details: male, Sprague-Dawley, rat, in vivo, po
Experimental: as §1, §2

[5] = tested on: subcutaneous metrazol (pentylenetetrazol) seizure; test: Subcutaneous metrazol seizure threshold test (scMet), mice, intraperitoneal; type: in vivo; details: ip;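 further: adult male CF no. 1 albino mice weighing 18-25 g, dosed intraperitoneally with compounds suspended in 0.5% methylcellulose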
[6] = tested on: maximal electroshock seizure (MES); test: Maximal electroshock seizure test (MES), mice, intraperitoneal; type: in vivo; details: ip;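 further: adult male CF no. 1 albino mice of 18–25 g, given compound intraperitoneally as a 0.5% methylcellulose suspension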
[7] = tested on: maximal electroshock seizure (MES); test: Maximal electroshock seizure test (MES), rats, oral; details: for responders at 30 mg/kg / ED50: Rattus norvegicus, po; for responders at 30 mg/kg: read-out: Anti-MES activity (number of animals protected/number of animals tested); for ED50: read-out: MES ED50, rats dosed orally; for ED50 / MES ED50: interval in parentheses = 95% confidence interval; for MES ED50: rats dosed orally;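 on all read-outs here: adult male Sprague-Dawley rats received test compounds by mouth as a suspension in 0.5% methylcellulose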
Experimental: as §1, §2

[8] = tested on: subcutaneous metrazol (pentylenetetrazol) seizure; test: animal or person; details: Rattus norvegicus, po, read-out: scMet ED50
Experimental: (§3) The evaluation of the anticonvulsant activity in the maximal electroshock seizure test (MES) and subcutaneous metrazol seizure threshold test (scMet) and the determination of neurotoxicity in the rotorod test, positional sense test, and others were performed according to the protocols described in White, H. S., Woodhead J. H., Wilcox K. S., Stables J. P., Kupferberg H. J., Wolf H. H., Discovery and Preclinical Development of Antiepileptic Drugs; 5th ed.; Lippincott Williams &Wilkins: New york, 2002; 36-48.
(§4) The tested compounds were suspended in 0.5% methylcellulose and administered (a) intraperitioneally (ip) to adult male CF no. 1 albino mice (18-25 g) in volume of 0.01 mL/g body weight and (b) orally to adult male Sprague-Dawley albino rats (100-150 g) in volume of 0.04 mL per 10 g of body weight. The pentylenetetrazol solution at convulsing dose was prepared by sufficient dissolution of pentylenetetrazol in 0.9% saline to make 0.85% solution for administration to mice and a 2.82% solution for administration to rats.
as §2

[9] = tested on: subcutaneous metrazol (pentylenetetrazol) seizure; details: for PI, protective index (PI = TD50/ED50) in the scMet test: male, Sprague-Dawley, rat, in vivo, po
Experimental: as §3, §4, §2

[10] = 30 mg/kg, 0.5 h after administration
[11] = 30 mg/kg, 4 h after administration
[12] = 100 mg/kg, 0.5 h after administration
[13] = 100 mg/kg, 4 h after administration
[14] = 300 mg/kg, 0.5 h after administration
[15] = 300 mg/kg, 4 h after administration

Structure (SMILES)	TD50 [3] [mg/kg]	scMet (number of animals protected/number of animals tested) [5, 10]	scMet (number of animals protected/number of animals tested) [5, 11]	scMet (number of animals protected/number of animals tested) [5, 12]	scMet (number of animals protected/number of animals tested) [5, 13]	scMet (number of animals protected/number of animals tested) [5, 14]	scMet (number of animals protected/number of animals tested) [5, 15]	MES (number of animals protected/number of animals tested) [6, 10]	MES (number of animals protected/number of animals tested) [6, 11]	MES (number of animals protected/number of animals tested) [6, 12]	MES (number of animals protected/number of animals tested) [6, 13]	MES (number of animals protected/number of animals tested) [6, 14]	MES (number of animals protected/number of animals tested) [6, 15]	responders at 30 mg/kg ([7]; 0.5 h) [%]	responders at 30 mg/kg ([7]; 1 h) [%]	responders at 30 mg/kg ([7]; 2 h) [%]	responders at 30 mg/kg ([7]; 4 h) [%]	responders at 30 mg/kg ([7]; […]) [%]	ED50 [7] [mg/kg]	ED50 [8] [mg/kg]	further results
CCCC(CCC)C(=O)Nc1ccc(S(N)(=O)=O)cc1 [Compound 6, 4-(valproylamido)-benzenesulfonamide]																					mice-MES test ED50 ([1]; mice, previous studies): 21 mg/kg
CC1(C)C(C(=O)Nc2nnc(S(N)(=O)=O)s2)C1(C)C [5-(2,2,3,3-tetramethylcyclopropanecarboxamide)-1,3,4-thiamidazole-2-sulfonamide]																					PI (TD50/ED50) in rat MES test [2]: above 50
CC(C)(C)C(=O)Nc1ccc(S(N)(=O)=O)cc1 [Compound 9, 2,2-Dimethyl-N-(4-sulfamoyl-phenyl)-propionamide]	> 500	0/1 0/1 0/1	0/1 0/1 0/1	0/1 0/1 0/1	0/1 0/1 0/1	0/1 0/1 0/1	0/1 0/1 0/1	0/1	0/1	1/3	2/3	1/1	1/1	0	75	50	100	0	42		melting point: 228 to 229 °C; PI, protective index (PI = TD50/ED50) in the MES test [4]: >11.8; MES ED50 [7]: 42.2 (22.9-86.4) mg/kg
CCC(CC)C(=O)NCc1ccc(S(N)(=O)=O)cc1 [Compound 28, 2-Ethyl-N-(4-sulfamoyl-benzyl)-butyramide]	> 500	0/1 0/1 0/1	0/1 0/1 0/1	0/1 0/1 0/1	0/1 0/1 0/1	0/1 0/1 0/1	0/1 0/1 0/1	0/1	0/1	3/3	1/3	1/1	1/1	25	50	0	0	25	24.7	> 250	melting point: 148 to 150 °C; PI, protective index (PI = TD50/ED50) in the scMet test [9]: >2
CCCC(C)C(=O)Nc1ccc(S(N)(=O)=O)cc1 (stereo not drawn) [Compound 16, 2-Methyl-N-(4-sulfamoyl-phenyl)-pentanamide]	> 500	0/1 0/1 0/1	0/1 0/1 0/1	0/1 0/1 0/1	0/1 0/1 0/1	0/1 0/1 0/1	0/1 0/1 0/1	0/1	0/1	0/3	2/3	0/1	1/1	25	100	100	100	25	~10	> 250	PI, protective index (PI = TD50/ED50) in the MES test [4]: >46.3; PI, protective index (PI = TD50/ED50) in the scMet test [9]: >2
CCC(CC)C(=O)Nc1ccc(S(N)(=O)=O)cc1 [Compound 11, 2-Ethyl-N-(4-sulfamoyl-phenyl)-butyramide]	> 500	0/1 0/1 0/1	0/1 0/1 0/1	0/1 0/1 0/1	0/1 0/1 0/1	0/1 0/1 0/1	0/1 0/1 0/1	1/1	1/1	3/3	3/3	1/1	1/1	75	100	100	100	25	~10	> 250	activity in the scMet test ([9]; doses up to 250 mg/kg): inactive; PI, protective index (PI = TD50/ED50) in the scMet test [9]: >2; anticonvulsant potency relative to valproic acid (times greater) ([7]; rat-MES, versus VPA): 49 times; rat-MES PI relative to VPA (times higher) ([7]; rat-MES, versus VPA): about 31 times; MES ED50 [7]: 9.9 (6.5-14.5) mg/kg
CCCC(C(=O)Nc1ccc(S(N)(=O)=O)cc1)C(C)C (stereo not drawn) [Compound 18, 2-Isopropyl-N-(4-sulfamoyl-phenyl)-pentanamide]	> 500	0/1 0/1 0/1	0/1 0/1 0/1	0/1 0/1 0/1	0/1 0/1 0/1	0/1 0/1 0/1	0/1 0/1 0/1	0/1	0/1	0/3	2/3	1/1	1/1	0	100	75	50	0	41.5	> 250	melting point: 217 to 219 °C; PI, protective index (PI = TD50/ED50) in the MES test [4]: >12.0; PI, protective index (PI = TD50/ED50) in the scMet test [9]: >2
CCCCC(CC)C(=O)Nc1ccc(S(N)(=O)=O)cc1 (stereo not drawn) [Compound 25, 2-Ethyl-N-(4-sulfamoyl-phenyl)-hexanamide]	> 500	0/1	0/1 0/1 0/1	2/5	0/1 0/1 0/1	3/5	0/1 0/1 0/1	0/1	0/1	3/3	3/3	1/1	1/1	0	100	75	100	0	23.9	> 250	melting point: 188 to 190 °C; PI, protective index (PI = TD50/ED50) in the MES test [4]: >21.0; PI, protective index (PI = TD50/ED50) in the scMet test [9]: >2
CC1(C)C(C(=O)Nc2ccc(S(N)(=O)=O)cc2)C1(C)C [Compound 7, 4-(2,2,3,3-tetramethylcyclopropanecarboxamido)-benzenesulfon amide]																					MES test ED50 ([1]; MES test in mice and rats, previously synthesized by the inventors): 26 mg/kg
NS(=O)(=O)c1ccc(NC(=O)Cc2ccccc2)cc1 [Compound 30, 2-Phenyl-N-(4-sulfamoyl-phenyl)-acetamide]	> 500	0/1 0/1 0/1	0/1 0/1 0/1	0/1 0/1 0/1	0/1 0/1 0/1	0/1 0/1 0/1	0/1 0/1 0/1	0/1	0/1	3/3	3/3	1/1	1/1	0	100	75	100	0	16.1	> 250	PI, protective index (PI = TD50/ED50) in the MES test [4]: >31.0; PI, protective index (PI = TD50/ED50) in the scMet test [9]: >2

From patent US20120264827A1, “SULFANYLAMIDE DERIVATIVES, USES THEREOF AND COMPOSITIONS COMPRISING THEM” (YISSUM RESEARCH DEVELOPMENT COMPANY OF THE HEBREW …, priority 2009, published 2012)
